Data published in patent publication US12116388B2, “Amylin receptor agonists” (Novo Nordisk A/S, priority 2022, dated 2024).
Starred links: 1 amine or outer side, 2 acyl side, 3 side chain; linkers in the order of their positions; H or OH if unused. Residues, ends and D or L forms follow the SMILES beside them. Groups on a side chain read outwards from the residue. *: point of attachment. C20 diacid = O=C(O)CCCCCCCCCCCCCCCCCCC(=O)*; C18 diacid = O=C(O)CCCCCCCCCCCCCCCCC(=O)*; γGlu = O=C(O)[C@H](CCC(=O)[*:2])N[*:1]

What was measured:
[1] = biological target: T1, human amylin receptor (hAMYR3) (Homo sapiens, UniProt O60896+P30988); experiment: Human amylin receptor (hAMYR3) in vitro potency assay, CRE-luciferase reporter in BHK cells; format: cell-based; settings: BHK hAMYR3/CRE-Luc cells, 3 hours incubation, assay buffer with 1% ovalbumin
T1 construct: host or cells: BHK (Baby Hamster Kidney), Hollex-1 cell line further transfected with RAMP3
Method in brief: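 Luminescence from a CRE-driven luciferase reporter reflects cAMP-mediated receptor activation. Peptides were serially diluted (7 concentrations, 7-fold steps, typically starting near 10 nM) in buffer with 1% ovalbumin and applied for 3 h at 37 °C to BHK cells co-expressing calcitonin receptor (a) and RAMP3.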

[2] = biological target: T2, human calcitonin receptor (hCTR) (Homo sapiens, UniProt P30988); experiment: Human calcitonin receptor (hCTR) in vitro potency assay, CRE-luciferase reporter in BHK cells; format: cell-based; settings: BHK hCTR/CRE-Luc cells, 3 hours incubation, assay buffer with 1% ovalbumin; read-out: hCalcR potency, EC50
T2 construct: host or cells: BHK (Baby Hamster Kidney), Hollex-1 cell line
T2 sequence (P30988 25-474): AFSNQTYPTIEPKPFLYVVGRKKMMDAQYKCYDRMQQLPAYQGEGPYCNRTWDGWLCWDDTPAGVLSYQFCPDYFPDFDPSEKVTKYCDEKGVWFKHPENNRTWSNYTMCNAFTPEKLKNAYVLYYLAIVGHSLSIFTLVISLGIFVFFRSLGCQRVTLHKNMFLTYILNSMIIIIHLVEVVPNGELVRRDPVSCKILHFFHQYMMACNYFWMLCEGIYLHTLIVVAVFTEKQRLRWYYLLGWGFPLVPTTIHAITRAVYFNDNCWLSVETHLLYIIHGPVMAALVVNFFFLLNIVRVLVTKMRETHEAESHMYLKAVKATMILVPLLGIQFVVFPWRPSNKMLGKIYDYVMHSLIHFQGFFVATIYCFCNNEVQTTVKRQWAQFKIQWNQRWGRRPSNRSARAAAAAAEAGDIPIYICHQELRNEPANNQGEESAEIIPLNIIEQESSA
Method in brief: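 Luciferase signal from a CRE reporter served as the cAMP read-out after 3 h, 37 °C exposure to compound. Cells were stably transfected BHK expressing hCTR, and the buffer was phenol-red-free DMEM with 10 mM HEPES and 1% ovalbumin. Compounds were tested as 7-point, 7-fold dilutions, often from about 10 nM.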

T1 sequence (O60896 24-148, one chain of several): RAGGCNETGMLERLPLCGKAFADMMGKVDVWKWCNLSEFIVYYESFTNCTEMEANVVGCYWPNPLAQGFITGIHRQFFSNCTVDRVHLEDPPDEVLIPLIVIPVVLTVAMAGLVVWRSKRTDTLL

Row | Compound | EC50 [1] [pM] | EC50 [2] [pM]
1 | CC[C@H](C)[C@H](NC(=O)[C@H](C)NC(=O)CNC(=O)[C@H](Cc1ccccc1)NC(=O)[C@@H]1CCCN1C(=O)[C@H](CC(=O)O)NC(=O)[C@H](CO)NC(=O)[C@H](CO)NC(=O)[C@H](Cc1c[nH]cn1)NC(=O)[C@H](Cc1c[nH]cn1)NC(=O)[C@H](CC(C)C)NC(=O)[C@H](Cc1ccccc1)NC(=O)[C@H](CCC(=O)O)NC(=O)[C@H](C)NC(=O)[C@H](CC(C)C)NC(=O)[C@H](CCCNC(=N)N)NC(=O)[C@H](C)NC(=O)[C@@H](NC(=O)[C@H](CCC(N)=O)NC(=O)[C@H](C)NC(=O)[C@@H](NC(=O)[C@H](CO)NC(=O)[C@H](CC(C)C)NC(=O)[C@H](Cc1c[nH]cn1)NC(=O)[C@H](CO)NC(=O)[C@H](C)NC(=O)CC[C@H](NC(=O)CCCCCCCCCCCCCCCCC(=O)O)C(=O)O)[C@@H](C)O)[C@@H](C)O)C(=O)N1CCC[C@H]1C(=O)N[C@@H](CO)C(=O)N[C@@H](CO)C(=O)N[C@H](C(=O)N[C@@H](CC(=O)O)C(=O)N[C@H](C(=O)NCC(=O)N1CCC[C@H]1C(=O)N[C@@H](CC(=O)O)C(=O)N[C@H](C(=O)N[C@@H](Cc1ccc(O)cc1)C(N)=O)[C@@H](C)O)C(C)C)[C@@H](C)O [Compound 37, N^1-[(4S)-4-carboxy-4-(17-carboxyheptadecanoylamino)butanoyl]-[Ala1,Ser2,His3,Leu4,Ser5,Ala7,Gln8,Ala10,Glu14,His17,Asp21,Pro22,Pro27,Asp31,Pro34,Asp35]-human amylin] ({C18 diacid-γGlu}-ASHLSTAQTARLAEFLHHSSDPFGAIPSSTDVGPDTY-NH2) | 1.68 | 2.16
2 | CC[C@H](C)[C@H](NC(=O)[C@H](C)NC(=O)CNC(=O)[C@H](Cc1ccccc1)NC(=O)[C@@H]1CCCN1C(=O)[C@H](CC(=O)O)NC(=O)[C@H](CO)NC(=O)[C@H](CO)NC(=O)[C@H](Cc1c[nH]cn1)NC(=O)[C@H](Cc1c[nH]cn1)NC(=O)[C@H](CC(C)C)NC(=O)[C@H](Cc1ccccc1)NC(=O)[C@H](CCC(=O)O)NC(=O)[C@H](C)NC(=O)[C@H](CC(C)C)NC(=O)[C@H](CCCNC(=N)N)NC(=O)[C@H](C)NC(=O)[C@@H](NC(=O)[C@H](CCC(N)=O)NC(=O)[C@H](C)NC(=O)[C@@H](NC(=O)[C@H](CO)NC(=O)[C@H](CC(C)C)NC(=O)[C@H](Cc1c[nH]cn1)NC(=O)[C@H](CO)NC(=O)[C@H](C)NC(=O)CC[C@H](NC(=O)CCCCCCCCCCCCCCCCCCC(=O)O)C(=O)O)[C@@H](C)O)[C@@H](C)O)C(=O)N1CCC[C@H]1C(=O)N[C@@H](CO)C(=O)N[C@@H](CO)C(=O)N[C@H](C(=O)N[C@@H](CC(=O)O)C(=O)N[C@H](C(=O)NCC(=O)N1CCC[C@H]1C(=O)N[C@@H](CC(=O)O)C(=O)N[C@H](C(=O)N1CCC[C@H]1C(N)=O)[C@@H](C)O)C(C)C)[C@@H](C)O [Compound 39, N^1-[(4S)-4-carboxy-4-(19-carboxynonadecanoylamino)butanoyl]-[Ala1,Ser2,His3,Leu4,Ser5,Ala7,Gln8,Ala10,Glu14,His17,Asp21,Pro22,Pro27,Asp31,Pro34,Asp35,Pro37]-human amylin] ({C20 diacid-γGlu}-ASHLSTAQTARLAEFLHHSSDPFGAIPSSTDVGPDTP-NH2) | 1.05 | 1.41
3 | CC[C@H](C)[C@H](NC(=O)[C@H](CCCCNC(=O)CC[C@H](NC(=O)CCCCCCCCCCCCCCCCC(=O)O)C(=O)O)NC(=O)CNC(=O)[C@H](Cc1ccccc1)NC(=O)[C@@H]1CCCN1C(=O)[C@H](CC(=O)O)NC(=O)[C@H](CO)NC(=O)[C@H](CO)NC(=O)[C@H](Cc1c[nH]cn1)NC(=O)[C@H](Cc1c[nH]cn1)NC(=O)[C@H](CC(C)C)NC(=O)[C@H](Cc1ccccc1)NC(=O)[C@H](CCC(=O)O)NC(=O)[C@H](C)NC(=O)[C@H](CC(C)C)NC(=O)[C@H](CCCNC(=N)N)NC(=O)[C@H](C)NC(=O)[C@@H](NC(=O)[C@H](CCC(N)=O)NC(=O)[C@H](C)NC(=O)[C@@H](NC(=O)[C@H](CO)NC(=O)[C@H](CC(C)C)NC(=O)[C@H](Cc1c[nH]cn1)NC(=O)[C@H](CO)NC(=O)[C@H](C)NC(C)=O)[C@@H](C)O)[C@@H](C)O)C(=O)N1CCC[C@H]1C(=O)N[C@@H](CO)C(=O)N[C@@H](CO)C(=O)N[C@H](C(=O)N[C@@H](CC(=O)O)C(=O)N[C@H](C(=O)NCC(=O)N1CCC[C@H]1C(=O)N[C@@H](CC(=O)O)C(=O)N[C@H](C(=O)N1CCC[C@H]1C(N)=O)[C@@H](C)O)C(C)C)[C@@H](C)O [Compound 40, N^1-acetyl,N{Epsilon-25}-[(4S)-4-carboxy-4-(17-carboxyheptadecanoylamino)butanoyl]-[Ala1,Ser2,His3,Leu4,Ser5,Ala7,Gln8,Ala10,Glu14,His17,Asp21,Pro22,Lys25,Pro27,Asp31,Pro34,Asp35,Pro37]-human amylin] (Ac-ASHLSTAQTARLAEFLHHSSDPFGK([γGlu-C18 diacid])IPSSTDVGPDTP-NH2) | 1.38 | 1.29

Next, values leading:

Row | EC50 [1] [pM] | EC50 [2] [pM] | Compound
4 | 2.96 | 3.22 | CC[C@H](C)[C@H](NC(=O)[C@H](C)NC(=O)CNC(=O)[C@H](Cc1ccccc1)NC(=O)[C@@H]1CCCN1C(=O)[C@H](CC(=O)O)NC(=O)[C@H](CO)NC(=O)[C@H](CO)NC(=O)[C@H](Cc1c[nH]cn1)NC(=O)[C@H](Cc1c[nH]cn1)NC(=O)[C@H](CC(C)C)NC(=O)[C@H](Cc1ccccc1)NC(=O)[C@H](CCC(=O)O)NC(=O)[C@H](C)NC(=O)[C@H](CC(C)C)NC(=O)[C@H](CCCNC(=N)N)NC(=O)[C@H](CCC(N)=O)NC(=O)[C@@H](NC(=O)[C@H](CCC(N)=O)NC(=O)[C@H](C)NC(=O)[C@@H](NC(=O)[C@H](CO)NC(=O)[C@H](CC(C)C)NC(=O)[C@H](Cc1c[nH]cn1)NC(=O)[C@H](CO)NC(=O)[C@H](C)NC(=O)CC[C@H](NC(=O)CCCCCCCCCCCCCCCCC(=O)O)C(=O)O)[C@@H](C)O)[C@@H](C)O)C(=O)N1CCC[C@H]1C(=O)N[C@@H](CO)C(=O)N[C@@H](CO)C(=O)N[C@H](C(=O)N[C@@H](CC(=O)O)C(=O)N[C@H](C(=O)NCC(=O)N1CCC[C@H]1C(=O)N[C@@H](CC(=O)O)C(=O)N[C@H](C(=O)N[C@@H](Cc1ccc(O)cc1)C(N)=O)[C@@H](C)O)C(C)C)[C@@H](C)O [Compound 36, N^1-[(4S)-4-carboxy-4-(17-carboxyheptadecanoylamino)butanoyl]-[Ala1,Ser2,His3,Leu4,Ser5,Ala7,Gln8,Glu14,His17,Asp21,Pro22,Pro27,Asp31,Pro34,Asp35]-human amylin] ({C18 diacid-γGlu}-ASHLSTAQTQRLAEFLHHSSDPFGAIPSSTDVGPDTY-NH2)
5 | 1.97 | 3.15 | CC[C@H](C)[C@H](NC(=O)[C@@H]1CCCN1C(=O)CNC(=O)[C@H](Cc1ccccc1)NC(=O)[C@H](CC(N)=O)NC(=O)[C@H](CC(=O)O)NC(=O)[C@H](CO)NC(=O)[C@H](CO)NC(=O)[C@H](Cc1c[nH]cn1)NC(=O)[C@H](Cc1c[nH]cn1)NC(=O)[C@H](CC(C)C)NC(=O)[C@H](Cc1ccccc1)NC(=O)[C@H](CCC(=O)O)NC(=O)[C@H](C)NC(=O)[C@H](CC(C)C)NC(=O)[C@H](CCCNC(=N)N)NC(=O)[C@H](C)NC(=O)[C@@H](NC(=O)[C@H](CCC(N)=O)NC(=O)[C@H](C)NC(=O)[C@@H](NC(=O)[C@H](CO)NC(=O)[C@H](CC(C)C)NC(=O)[C@H](Cc1c[nH]cn1)NC(=O)[C@H](CO)NC(=O)[C@H](C)NC(=O)CC[C@H](NC(=O)CCCCCCCCCCCCCCCCC(=O)O)C(=O)O)[C@@H](C)O)[C@@H](C)O)C(=O)N[C@@H](CC(C)C)C(=O)N1CCC[C@H]1C(=O)N1CCC[C@H]1C(=O)N[C@H](C(=O)N[C@@H](CC(=O)O)C(=O)N[C@H](C(=O)NCC(=O)N[C@@H](CO)C(=O)N[C@@H](CC(N)=O)C(=O)N[C@H](C(=O)N[C@@H](Cc1ccc(O)cc1)C(N)=O)[C@@H](C)O)C(C)C)[C@@H](C)O [Compound 38, N^1-[(4S)-4-carboxy-4-(17-carboxyheptadecanoylamino)butanoyl]-[Ala1,Ser2,His3,Leu4,Ser5,Ala7,Gln8,Ala10,Glu14,His17,Asp21,Pro25,Pro28,Pro29,Asp31]-human amylin] ({C18 diacid-γGlu}-ASHLSTAQTARLAEFLHHSSDNFGPILPPTDVGSNTY-NH2)
